From ChEMBL document CHEMBL1201862, “PubChem BioAssay data set” (2004)
Calls of active or inactive are those of the source.

Experiments:
[1] = molecular target: Mu-type opioid receptor (Homo sapiens, UniProt P35372); type: functional, cell-based;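 also: U2OS cells with beta-arrestin recruitment to OPRM1 by beta-gal complementation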
[2] = molecular target: 5-hydroxytryptamine receptor 2A (Mus musculus, UniProt P35363); type: functional, cell-based;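 also: CHO-K1 cells with tagged receptor and beta-arrestin; agonist potency measured as compound-induced activation of the receptor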
[3] = molecular target: SWI/SNF-related matrix-associated actin-dependent regulator of chromatin subfamily A member 2 (Homo sapiens, UniProt P51531); test: Luminescence-based cell-based high throughput dose response assay to identify activators of the function of SWI/SNF related, matrix associated, actin dependent regulator of chromatin, subfamily a, member 2 (SMARCA2, BRM).; type: functional
[4] = Counterscreen for activators of the function of SWI/SNF related, matrix associated, actin dependent regulator of chromatin, subfamily a, member 2 (SMARCA2, BRM): Luminescence-based cell-based high throughput dose response assay to identify non-selective compounds using the VP16 reporter assay.; type: functional
[5] = cytotoxicity in HEK-293T cells, dose response, cytotoxicity control for TCR NF-kB inhibitor project, luminescence, T-cell screen hits (AID 489026); type: functional, cell-based;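 also: cells exposed to compound about 14 hours before the viability readout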
[6] = molecular target: Galanin receptor type 3 (Homo sapiens, UniProt O60755); test: Fluorescence-based cell-based primary high throughput dose response assay to identify antagonists of the Galanin Receptor 3 (GalR3).; type: functional
[7] = cells; type: functional, cell-based; details: HEK-CNG
[8] = Shn3 3'UTR reporter inhibitors, dose response, cell-based, Clone20 osteoblasts, firefly luciferase, cherry-picked (AID 624132); type: functional;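 also: firefly luciferase luminescence from reporter carrying the Shn3 3'UTR in osteoblasts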
[9] = HepG2 cell cytotoxicity, dose response, cytotoxicity control for Shn3 inhibitor project, CellTiter-Glo, cherry-picked (AID 624134); type: functional, cell-based
[10] = control 3'UTR Renilla luciferase suppression, dose response, counter-screen for Shn3 inhibitor project, cell-based, Clone20-Shn3RL, cherry-picked (AID 624133); type: functional
[11] = molecular target: T1, Methionyl-tRNA synthetase, putative (Trypanosoma brucei brucei, UniProt Q38C91); type: functional, Trypanosoma brucei brucei strain 927/4 GUTat10.1
[12] = Counterscreen for inhibitors of Trypanosoma brucei methionyl tRNA synthetase (MetRS): Luminescence-based cell-based high throughput dose response assay to identify compounds that are cytotoxic to Jurkat human T lymphocyte cells.; type: functional
[13] = molecular target: T1, Methionyl-tRNA synthetase, putative; type: functional, Trypanosoma brucei brucei strain 927/4 GUTat10.1; remark: listed apart in the source
[14] = molecular target: Cytochrome P450 2D6 (Homo sapiens, UniProt P10635);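 also: CYP2D6 member of a cytochrome P450 panel assay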
[15] = molecular target: Cytochrome P450 3A4 (Homo sapiens, UniProt P08684);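 also: CYP3A4 tested as one member of a cytochrome P450 panel screen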
[16] = molecular target: Cytochrome P450 2C9 (Homo sapiens, UniProt P11712)
[17] = cells; type: functional, cell-based
[18] = molecular target: T2, Nuclear receptor subfamily 0 group B member 1 (Homo sapiens, UniProt P51843); type: functional, cell-based;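 also: HEK293T cells transfected with SF-1 and DAX-1 plus StAR promoter luciferase reporter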
T2 sequence (P51843 whole entry): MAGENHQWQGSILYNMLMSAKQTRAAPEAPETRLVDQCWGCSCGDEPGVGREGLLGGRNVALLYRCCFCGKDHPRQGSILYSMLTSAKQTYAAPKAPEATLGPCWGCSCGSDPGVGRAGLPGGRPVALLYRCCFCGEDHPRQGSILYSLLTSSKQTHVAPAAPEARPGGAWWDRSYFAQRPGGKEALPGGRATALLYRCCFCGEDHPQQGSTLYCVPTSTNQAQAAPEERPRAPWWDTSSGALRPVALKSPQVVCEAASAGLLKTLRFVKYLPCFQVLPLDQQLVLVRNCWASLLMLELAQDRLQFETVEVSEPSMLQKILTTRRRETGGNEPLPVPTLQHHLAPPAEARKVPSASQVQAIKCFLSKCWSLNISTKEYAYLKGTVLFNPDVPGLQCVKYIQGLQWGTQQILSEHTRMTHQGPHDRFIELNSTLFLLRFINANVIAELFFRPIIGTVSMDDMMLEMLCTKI

[19] = molecular target: Beta-lactamase (Salmonella choleraesuis (strain SC-B67), UniProt Q5J463); test: Epi-absorbance-based counterscreen for selective VIM-2 inhibitors: dose response biochemical high throughput screening assay to identify inhibitors of TEM-1 serine-beta-lactamase.
[20] = molecular target: T3, Beta-lactamase (Pseudomonas aeruginosa, UniProt Q79MP6); test: IMP-1 metallo-beta-lactamase inhibitors, dose response, selectivity assay for VIM-2 inhibitor project, biochemical, epi-absorbance (AID 1920)
[21] = molecular target: T4, Beta Lactamase (Pseudomonas aeruginosa, UniProt Q932Y6); test: VIM-2 metallo-beta-lactamase inhibitor potency, dose response, biochemical, epi-absorbance readout, selective inhibitors (AID 1919)
[22] = molecular target: T3, Beta-lactamase; test: […] counterscreen for selective VIM-2 inhibitors: dose response biochemical high throughput screening assay to identify inhibitors of IMP-1 metallo-beta-lactamase.
[23] = molecular target: T4, Beta Lactamase; test: VIM-2 inhibitor FRET-based artefact check, dose response, artefact control for selective VIM-2 inhibitor project, biochemical, FRET readout, CCF2 substrate (AID 1926)
[24] = molecular target: T5, Caspase-3 (Homo sapiens, UniProt P42574); type: functional
T5 sequence (P42574 whole entry): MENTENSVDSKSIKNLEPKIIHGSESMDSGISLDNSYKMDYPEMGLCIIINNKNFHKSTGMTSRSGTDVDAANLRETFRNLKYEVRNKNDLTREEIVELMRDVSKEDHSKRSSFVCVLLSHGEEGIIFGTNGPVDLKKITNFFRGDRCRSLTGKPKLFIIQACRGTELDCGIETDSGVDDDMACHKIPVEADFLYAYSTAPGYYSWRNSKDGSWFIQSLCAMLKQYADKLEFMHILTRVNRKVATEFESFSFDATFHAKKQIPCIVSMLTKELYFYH

[25] = molecular target: T6, Sentrin-specific protease 7 (Homo sapiens, UniProt Q9BQF6); type: functional;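 also: Luminescence-based dose-response confirmation of ultra-high-throughput screening hits, measuring inhibition of SENP7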
T6 sequence (Q9BQF6 whole entry): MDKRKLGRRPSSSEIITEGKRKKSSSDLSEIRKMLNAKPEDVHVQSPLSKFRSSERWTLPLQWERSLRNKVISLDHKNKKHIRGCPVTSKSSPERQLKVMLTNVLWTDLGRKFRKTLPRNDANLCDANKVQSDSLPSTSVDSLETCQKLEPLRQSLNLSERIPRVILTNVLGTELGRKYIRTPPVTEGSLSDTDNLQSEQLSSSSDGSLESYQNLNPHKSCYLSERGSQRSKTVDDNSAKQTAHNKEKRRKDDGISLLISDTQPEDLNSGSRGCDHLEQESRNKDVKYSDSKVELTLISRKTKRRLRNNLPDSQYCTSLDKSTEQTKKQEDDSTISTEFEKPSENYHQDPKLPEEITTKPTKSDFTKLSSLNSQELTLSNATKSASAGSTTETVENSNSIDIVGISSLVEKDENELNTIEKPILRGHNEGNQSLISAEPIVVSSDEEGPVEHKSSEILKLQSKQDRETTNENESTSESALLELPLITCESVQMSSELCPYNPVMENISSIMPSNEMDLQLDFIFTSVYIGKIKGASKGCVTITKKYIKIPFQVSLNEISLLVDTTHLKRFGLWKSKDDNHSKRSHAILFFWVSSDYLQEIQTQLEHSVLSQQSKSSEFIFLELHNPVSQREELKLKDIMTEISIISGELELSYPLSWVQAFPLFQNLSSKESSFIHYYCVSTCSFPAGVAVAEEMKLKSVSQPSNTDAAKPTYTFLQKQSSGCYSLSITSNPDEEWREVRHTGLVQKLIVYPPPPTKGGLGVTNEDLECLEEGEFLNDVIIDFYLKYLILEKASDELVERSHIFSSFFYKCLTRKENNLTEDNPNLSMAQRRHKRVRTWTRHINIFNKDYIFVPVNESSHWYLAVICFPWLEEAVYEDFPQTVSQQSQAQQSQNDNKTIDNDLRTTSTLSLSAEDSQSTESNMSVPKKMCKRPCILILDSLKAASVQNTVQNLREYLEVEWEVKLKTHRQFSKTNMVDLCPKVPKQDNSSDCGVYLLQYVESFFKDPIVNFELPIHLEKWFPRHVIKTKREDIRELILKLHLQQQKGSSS

[26] = molecular target: T7, Sentrin-specific protease 6 (Homo sapiens, UniProt Q9GZR1); type: functional;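 also: Luminescence-based dose-response confirmatory assay of SENP6 inhibition, following up an ultra-high-throughput screen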
T7 sequence (Q9GZR1 whole entry): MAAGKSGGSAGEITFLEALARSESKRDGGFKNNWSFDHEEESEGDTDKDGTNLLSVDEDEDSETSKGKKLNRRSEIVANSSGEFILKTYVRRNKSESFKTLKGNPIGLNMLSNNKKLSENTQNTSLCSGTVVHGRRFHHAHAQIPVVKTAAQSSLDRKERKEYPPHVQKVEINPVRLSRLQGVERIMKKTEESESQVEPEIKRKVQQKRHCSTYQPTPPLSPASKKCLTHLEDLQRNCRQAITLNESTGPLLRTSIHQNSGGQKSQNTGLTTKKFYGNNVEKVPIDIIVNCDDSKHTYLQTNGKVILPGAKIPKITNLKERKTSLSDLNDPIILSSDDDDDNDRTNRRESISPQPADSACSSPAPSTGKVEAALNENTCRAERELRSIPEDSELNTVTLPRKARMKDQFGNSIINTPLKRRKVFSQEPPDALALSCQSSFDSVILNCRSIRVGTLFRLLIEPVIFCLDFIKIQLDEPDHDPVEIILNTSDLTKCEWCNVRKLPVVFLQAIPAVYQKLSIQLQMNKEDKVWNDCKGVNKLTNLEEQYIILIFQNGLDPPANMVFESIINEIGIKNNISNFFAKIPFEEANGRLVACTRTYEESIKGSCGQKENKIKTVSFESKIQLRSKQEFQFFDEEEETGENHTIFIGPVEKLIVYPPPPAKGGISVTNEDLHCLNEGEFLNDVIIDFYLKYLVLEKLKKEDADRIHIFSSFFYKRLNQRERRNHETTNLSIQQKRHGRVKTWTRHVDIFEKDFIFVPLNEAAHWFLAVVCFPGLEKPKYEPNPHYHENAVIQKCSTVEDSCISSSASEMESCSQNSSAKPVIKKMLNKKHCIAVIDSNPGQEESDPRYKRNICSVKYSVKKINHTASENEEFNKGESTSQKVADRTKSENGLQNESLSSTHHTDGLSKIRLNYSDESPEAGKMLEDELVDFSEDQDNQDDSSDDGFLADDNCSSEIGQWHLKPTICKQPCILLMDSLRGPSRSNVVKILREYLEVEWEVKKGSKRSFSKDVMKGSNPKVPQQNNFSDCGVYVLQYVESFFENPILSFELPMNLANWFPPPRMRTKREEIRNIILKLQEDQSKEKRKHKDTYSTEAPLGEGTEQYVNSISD

[27] = molecular target: T8, Sentrin-specific protease 8 (Homo sapiens, UniProt Q96LD8); type: functional
T8 sequence (Q96LD8 whole entry): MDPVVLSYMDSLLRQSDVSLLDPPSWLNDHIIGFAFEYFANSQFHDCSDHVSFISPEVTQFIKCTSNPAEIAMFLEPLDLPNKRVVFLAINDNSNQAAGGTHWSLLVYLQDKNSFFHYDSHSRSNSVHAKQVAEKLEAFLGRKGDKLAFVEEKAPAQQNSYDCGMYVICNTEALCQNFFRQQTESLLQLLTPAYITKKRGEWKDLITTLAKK

[28] = molecular target: Mitochondrial peptide methionine sulfoxide reductase (Bos taurus, UniProt P54149); test: Absorbance-based biochemical high throughput dose response assay for activators of Methionine sulfoxide reductase A (MsrA).; type: functional
[29] = molecular target: T8, Sentrin-specific protease 8; type: functional; remark: listed apart in the source
[30] = molecular target: T8, Sentrin-specific protease 8; type: functional; remark: listed apart in the source
[31] = molecular target: T5, Caspase-3; test: Dose-response confirmation of uHTS inhibitor hits of Sentrin-Specific Protease 8 in a Caspase-3 Fluorescence assay.; type: functional
[32] = molecular target: Protein S100-A4 (Homo sapiens, UniProt P26447); test: S100A4-myosin IIA binding inhibitor potency, dose response, biochemical, fluorescence polarization, cherry-picked hits (AID 687001); type: functional
[33] = tested on: Vero; test: Vero cell toxicity, dose response, cytotoxicity control, plate reader, cherry-pick samples (AID 687020); type: functional, cell-based; details: Chlorocebus sabaeus

T1 sequence (Q38C91 whole entry): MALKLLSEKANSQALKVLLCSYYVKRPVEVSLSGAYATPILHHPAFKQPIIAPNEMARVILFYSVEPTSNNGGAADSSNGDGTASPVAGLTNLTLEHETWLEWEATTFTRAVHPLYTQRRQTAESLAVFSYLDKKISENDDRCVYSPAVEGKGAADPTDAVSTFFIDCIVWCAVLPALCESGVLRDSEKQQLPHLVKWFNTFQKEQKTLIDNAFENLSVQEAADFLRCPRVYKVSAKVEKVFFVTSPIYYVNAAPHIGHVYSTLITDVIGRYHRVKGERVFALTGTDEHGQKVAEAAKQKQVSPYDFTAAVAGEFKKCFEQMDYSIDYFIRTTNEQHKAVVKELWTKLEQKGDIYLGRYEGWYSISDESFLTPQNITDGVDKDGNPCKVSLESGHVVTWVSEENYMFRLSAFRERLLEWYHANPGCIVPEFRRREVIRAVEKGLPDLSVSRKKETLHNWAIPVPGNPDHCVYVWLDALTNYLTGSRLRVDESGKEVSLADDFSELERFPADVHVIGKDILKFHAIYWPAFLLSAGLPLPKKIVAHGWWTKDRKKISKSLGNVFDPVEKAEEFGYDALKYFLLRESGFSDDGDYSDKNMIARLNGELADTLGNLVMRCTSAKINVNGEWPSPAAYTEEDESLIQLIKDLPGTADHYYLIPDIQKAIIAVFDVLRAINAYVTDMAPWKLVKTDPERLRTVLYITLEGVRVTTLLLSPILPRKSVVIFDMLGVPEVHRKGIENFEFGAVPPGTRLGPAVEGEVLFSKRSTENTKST
T3 sequence (Q79MP6 whole entry): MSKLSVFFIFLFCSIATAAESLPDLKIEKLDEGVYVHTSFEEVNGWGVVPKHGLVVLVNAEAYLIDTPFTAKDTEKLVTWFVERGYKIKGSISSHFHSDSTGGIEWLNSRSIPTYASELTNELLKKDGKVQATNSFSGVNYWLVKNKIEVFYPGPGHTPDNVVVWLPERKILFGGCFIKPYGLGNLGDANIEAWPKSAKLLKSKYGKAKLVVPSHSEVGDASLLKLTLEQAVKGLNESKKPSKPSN
T4 sequence (Q932Y6 whole entry): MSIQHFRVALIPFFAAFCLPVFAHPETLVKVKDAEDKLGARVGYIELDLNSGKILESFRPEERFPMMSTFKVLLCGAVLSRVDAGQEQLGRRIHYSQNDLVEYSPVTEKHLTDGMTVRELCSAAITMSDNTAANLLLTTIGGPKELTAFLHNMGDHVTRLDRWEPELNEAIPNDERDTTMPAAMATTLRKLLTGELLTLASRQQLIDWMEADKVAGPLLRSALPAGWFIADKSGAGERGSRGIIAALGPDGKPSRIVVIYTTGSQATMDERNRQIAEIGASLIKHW
Sequence of Beta-lactamase (Salmonella choleraesuis (strain SC-B67), UniProt Q5J463) (Q5J463 whole entry): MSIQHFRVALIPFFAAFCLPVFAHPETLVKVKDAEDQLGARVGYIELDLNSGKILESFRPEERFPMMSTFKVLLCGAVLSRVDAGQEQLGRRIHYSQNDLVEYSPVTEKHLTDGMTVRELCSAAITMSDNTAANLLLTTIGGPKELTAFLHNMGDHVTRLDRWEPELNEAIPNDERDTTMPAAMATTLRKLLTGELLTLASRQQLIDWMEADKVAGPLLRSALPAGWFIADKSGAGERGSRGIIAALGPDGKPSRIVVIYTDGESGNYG
Sequence of Protein S100-A4 (P26447 whole entry): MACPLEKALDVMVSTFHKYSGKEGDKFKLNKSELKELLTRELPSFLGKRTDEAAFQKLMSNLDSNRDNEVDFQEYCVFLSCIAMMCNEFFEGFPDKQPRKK
Sequence of Mu-type opioid receptor (P35372 whole entry): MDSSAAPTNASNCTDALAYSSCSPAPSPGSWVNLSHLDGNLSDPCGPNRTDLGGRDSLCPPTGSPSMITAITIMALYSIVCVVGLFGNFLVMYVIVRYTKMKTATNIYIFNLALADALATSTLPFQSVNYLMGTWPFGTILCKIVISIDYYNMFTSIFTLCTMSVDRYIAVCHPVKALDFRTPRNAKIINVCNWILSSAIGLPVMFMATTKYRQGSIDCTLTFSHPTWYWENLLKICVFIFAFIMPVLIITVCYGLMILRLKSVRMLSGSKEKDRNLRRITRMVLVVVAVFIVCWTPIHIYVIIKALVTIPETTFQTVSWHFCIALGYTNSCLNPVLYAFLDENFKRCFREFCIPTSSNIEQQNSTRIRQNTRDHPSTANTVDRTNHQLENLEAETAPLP
Sequence of Cytochrome P450 3A4 (P08684 whole entry): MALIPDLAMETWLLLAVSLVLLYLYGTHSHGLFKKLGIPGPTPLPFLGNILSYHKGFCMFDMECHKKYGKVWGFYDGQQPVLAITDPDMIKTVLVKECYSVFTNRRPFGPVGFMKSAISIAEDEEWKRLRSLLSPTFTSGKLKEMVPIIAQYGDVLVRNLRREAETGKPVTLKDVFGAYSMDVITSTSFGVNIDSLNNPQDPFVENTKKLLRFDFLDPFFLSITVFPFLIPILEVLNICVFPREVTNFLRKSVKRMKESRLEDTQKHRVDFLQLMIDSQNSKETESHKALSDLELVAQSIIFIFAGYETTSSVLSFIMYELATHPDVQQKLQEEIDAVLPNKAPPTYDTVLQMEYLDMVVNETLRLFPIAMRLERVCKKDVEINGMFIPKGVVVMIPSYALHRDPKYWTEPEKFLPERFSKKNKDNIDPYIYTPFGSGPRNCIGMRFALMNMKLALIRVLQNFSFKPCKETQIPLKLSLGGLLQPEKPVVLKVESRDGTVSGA
Sequence of Mitochondrial peptide methionine sulfoxide reductase (P54149 whole entry): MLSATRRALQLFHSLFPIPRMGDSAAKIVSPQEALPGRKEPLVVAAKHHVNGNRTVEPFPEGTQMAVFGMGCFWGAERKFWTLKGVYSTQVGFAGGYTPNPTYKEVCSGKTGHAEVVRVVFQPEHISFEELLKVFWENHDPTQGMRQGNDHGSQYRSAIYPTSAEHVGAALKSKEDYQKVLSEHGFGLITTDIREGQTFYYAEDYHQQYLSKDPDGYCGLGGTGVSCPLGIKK
Sequence of Cytochrome P450 2D6 (P10635 whole entry): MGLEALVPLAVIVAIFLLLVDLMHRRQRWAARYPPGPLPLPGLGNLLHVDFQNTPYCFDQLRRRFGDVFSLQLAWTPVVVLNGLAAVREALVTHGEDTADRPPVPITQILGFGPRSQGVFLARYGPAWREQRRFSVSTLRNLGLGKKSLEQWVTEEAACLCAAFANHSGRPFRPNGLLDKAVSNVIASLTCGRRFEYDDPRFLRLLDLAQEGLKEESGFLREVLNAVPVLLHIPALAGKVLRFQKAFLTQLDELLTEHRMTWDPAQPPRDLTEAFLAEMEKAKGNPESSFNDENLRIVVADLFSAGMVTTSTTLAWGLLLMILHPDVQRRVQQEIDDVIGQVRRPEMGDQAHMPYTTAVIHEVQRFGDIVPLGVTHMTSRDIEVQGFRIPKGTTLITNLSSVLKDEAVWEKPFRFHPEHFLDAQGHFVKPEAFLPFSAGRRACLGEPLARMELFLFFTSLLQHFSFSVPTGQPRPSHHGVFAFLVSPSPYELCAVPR
Sequence of SWI/SNF-related matrix-associated actin-dependent regulator of chromatin subfamily A member 2 (P51531 whole entry): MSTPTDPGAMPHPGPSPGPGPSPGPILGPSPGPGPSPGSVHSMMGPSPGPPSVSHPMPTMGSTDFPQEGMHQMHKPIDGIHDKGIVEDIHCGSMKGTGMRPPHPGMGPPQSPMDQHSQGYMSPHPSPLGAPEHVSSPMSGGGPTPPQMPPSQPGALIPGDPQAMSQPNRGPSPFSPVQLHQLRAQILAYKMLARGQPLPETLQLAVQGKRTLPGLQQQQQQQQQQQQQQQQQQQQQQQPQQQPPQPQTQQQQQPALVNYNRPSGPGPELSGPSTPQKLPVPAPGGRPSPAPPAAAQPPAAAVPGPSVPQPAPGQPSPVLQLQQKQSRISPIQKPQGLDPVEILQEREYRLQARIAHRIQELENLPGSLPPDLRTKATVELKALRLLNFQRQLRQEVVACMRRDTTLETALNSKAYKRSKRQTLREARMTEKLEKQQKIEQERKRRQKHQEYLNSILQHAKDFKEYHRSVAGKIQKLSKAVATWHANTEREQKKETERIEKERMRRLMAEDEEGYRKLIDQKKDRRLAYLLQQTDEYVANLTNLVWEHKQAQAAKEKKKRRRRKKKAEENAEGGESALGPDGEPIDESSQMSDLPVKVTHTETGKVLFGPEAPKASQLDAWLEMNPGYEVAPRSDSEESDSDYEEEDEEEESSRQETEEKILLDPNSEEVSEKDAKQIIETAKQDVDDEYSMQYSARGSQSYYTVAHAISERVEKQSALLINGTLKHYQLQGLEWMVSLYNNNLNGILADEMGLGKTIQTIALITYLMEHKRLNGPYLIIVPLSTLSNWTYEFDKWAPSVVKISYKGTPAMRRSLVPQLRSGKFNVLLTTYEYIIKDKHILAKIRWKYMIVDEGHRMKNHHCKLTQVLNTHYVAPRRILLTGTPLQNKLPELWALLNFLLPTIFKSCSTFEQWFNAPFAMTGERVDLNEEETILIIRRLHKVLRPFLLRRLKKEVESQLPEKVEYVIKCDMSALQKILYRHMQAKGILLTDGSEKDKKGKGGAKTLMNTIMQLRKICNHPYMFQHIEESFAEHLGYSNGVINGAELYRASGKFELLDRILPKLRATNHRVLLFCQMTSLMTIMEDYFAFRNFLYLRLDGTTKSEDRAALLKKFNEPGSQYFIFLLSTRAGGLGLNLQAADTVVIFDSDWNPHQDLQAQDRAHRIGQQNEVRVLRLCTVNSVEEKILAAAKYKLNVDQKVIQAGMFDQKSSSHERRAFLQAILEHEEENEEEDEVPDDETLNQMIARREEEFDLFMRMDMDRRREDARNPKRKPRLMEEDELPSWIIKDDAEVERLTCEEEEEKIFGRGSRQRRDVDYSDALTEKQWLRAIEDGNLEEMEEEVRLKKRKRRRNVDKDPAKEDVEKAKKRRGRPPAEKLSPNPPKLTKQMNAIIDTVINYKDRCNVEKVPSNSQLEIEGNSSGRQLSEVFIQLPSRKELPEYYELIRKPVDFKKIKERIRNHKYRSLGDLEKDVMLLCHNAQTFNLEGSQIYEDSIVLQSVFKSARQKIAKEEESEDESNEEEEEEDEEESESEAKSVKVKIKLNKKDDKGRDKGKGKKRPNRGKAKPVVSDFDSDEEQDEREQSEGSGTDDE

Cc1ccc(C)c(CN2CCN(c3ncccn3)CC2)c1
EC50 [1]: 92.4 µM (inactive) | EC50 [2]: 76 µM (inactive)

CCCCn1c(=N)n(CC(=O)c2ccc(OC)cc2)c2ccccc21
EC50 [3]: > 91.1 µM (inactive) | EC50 [4]: > 91.1 µM (inactive)

CCCCc1ccc(NC(=O)c2ccc(N(C)S(C)(=O)=O)cc2)cc1
IC50 [5]: > 80 µM (inactive) | IC50 [6]: 0.996 µM (active) | EC50 [7]: > 29.9 µM (inactive)

Nc1nc(N)c(-c2cccc(C(F)(F)F)c2)c(Cc2cccc(C(F)(F)F)c2)n1
AC50 [8]: 3.6 µM (active) | AC50 [9]: 5.88 µM (active) | AC50 [10]: 3.87 µM (active) | IC50 [11]: 19.5 µM (inactive) | IC50 [12]: 20.7 µM (inactive) | IC50 [13]: 12.7 µM (inactive) | AC50 [14]: 3.98 µM (inconclusive) | AC50 [15]: 3.16 µM (inconclusive) | AC50 [16]: 5.01 µM (inconclusive)

Cn1nnnc1SCC(=O)Nc1ccc2c(c1)OCCO2
IC50 [17]: > 67.5 µM (inactive) | IC50 [18]: > 67.5 µM (inactive)

COc1ccc(C(=O)C2=C(O)C(=O)N(Cc3ccco3)C2c2cc(OC)ccc2OC)cc1 (stereo not drawn)
IC50 [19]: > 59.6 µM (inactive) | IC50 [20]: > 59.6 µM (inactive) | IC50 [21]: 12.8 µM (inactive) | IC50 [22]: > 59.6 µM (inactive) | IC50 [23]: 5.61 µM (active)

O=C(COC(=O)c1ccc([N+](=O)[O-])s1)NNC(=O)c1ccccc1
IC50 [24]: 6.74 µM (active) | IC50 [25]: 6.91 µM (active) | IC50 [26]: 4.34 µM (active) | IC50 [27]: 4.2 µM (active) | EC50 [28]: 36.1 µM (inactive) | IC50 [29]: 2.3 µM (active) | IC50 [30]: 4.94 µM (active) | IC50 [31]: 84.6 µM (inactive)

O=C(CCc1ccccc1Cl)NC1CCCN(c2ccc(C(F)(F)F)cn2)C1 (stereo not drawn)
AC50 [32]: 9.67 µM (active)

CC1(C(=O)NCc2cccc(C(F)(F)F)c2)CCN1Cc1cc2ccccc2o1 (stereo not drawn)
AC50 [33]: 20.4 µM (active)
